In ChEMBL document CHEMBL4507268 (2021):

How the values were obtained:
[1] = molecular target: T1, Serine/threonine-protein kinase DCLK2 (Homo sapiens) (UniProt Q8N568); settings: Compound concentration 1.0 uM
T1 sequence (whole entry): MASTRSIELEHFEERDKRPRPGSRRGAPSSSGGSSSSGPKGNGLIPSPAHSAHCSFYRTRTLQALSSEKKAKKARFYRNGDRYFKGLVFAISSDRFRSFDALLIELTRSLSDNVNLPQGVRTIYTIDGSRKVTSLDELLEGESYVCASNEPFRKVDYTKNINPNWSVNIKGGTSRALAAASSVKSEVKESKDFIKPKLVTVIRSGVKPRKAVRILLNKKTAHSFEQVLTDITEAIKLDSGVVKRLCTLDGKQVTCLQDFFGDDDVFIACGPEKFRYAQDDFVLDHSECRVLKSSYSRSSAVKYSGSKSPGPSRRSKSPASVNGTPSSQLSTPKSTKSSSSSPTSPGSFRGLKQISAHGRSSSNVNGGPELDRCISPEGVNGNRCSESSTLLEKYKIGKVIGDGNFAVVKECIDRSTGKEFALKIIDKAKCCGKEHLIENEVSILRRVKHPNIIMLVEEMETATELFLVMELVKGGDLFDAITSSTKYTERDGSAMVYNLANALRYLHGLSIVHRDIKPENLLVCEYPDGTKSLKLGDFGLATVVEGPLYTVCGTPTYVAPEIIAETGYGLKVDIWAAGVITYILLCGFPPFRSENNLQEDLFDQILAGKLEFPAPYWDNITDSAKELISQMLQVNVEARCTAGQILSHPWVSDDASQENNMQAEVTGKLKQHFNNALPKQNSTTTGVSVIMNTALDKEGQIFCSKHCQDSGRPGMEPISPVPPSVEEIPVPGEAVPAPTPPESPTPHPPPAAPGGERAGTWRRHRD

[2] = molecular target: Casein kinase II subunit alpha (Homo sapiens) (UniProt P68400); settings: Compound concentration 1.0 uM
Casein kinase II subunit alpha (Homo sapiens), sequence (P68400 whole entry, looked up): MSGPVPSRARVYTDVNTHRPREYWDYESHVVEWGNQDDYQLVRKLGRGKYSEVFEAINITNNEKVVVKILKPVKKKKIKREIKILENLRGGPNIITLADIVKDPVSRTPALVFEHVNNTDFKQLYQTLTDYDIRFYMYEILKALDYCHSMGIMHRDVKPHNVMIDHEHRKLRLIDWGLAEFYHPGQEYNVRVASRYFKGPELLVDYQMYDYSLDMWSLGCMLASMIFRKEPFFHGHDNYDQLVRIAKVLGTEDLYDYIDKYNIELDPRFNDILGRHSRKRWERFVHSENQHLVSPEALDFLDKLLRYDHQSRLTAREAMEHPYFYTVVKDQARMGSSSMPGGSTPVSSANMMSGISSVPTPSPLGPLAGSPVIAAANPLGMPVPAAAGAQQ

[3] = molecular target: TGF-beta receptor type-2 (Homo sapiens) (UniProt P37173); settings: Compound concentration 1.0 uM
TGF-beta receptor type-2 (Homo sapiens), sequence (P37173 whole entry): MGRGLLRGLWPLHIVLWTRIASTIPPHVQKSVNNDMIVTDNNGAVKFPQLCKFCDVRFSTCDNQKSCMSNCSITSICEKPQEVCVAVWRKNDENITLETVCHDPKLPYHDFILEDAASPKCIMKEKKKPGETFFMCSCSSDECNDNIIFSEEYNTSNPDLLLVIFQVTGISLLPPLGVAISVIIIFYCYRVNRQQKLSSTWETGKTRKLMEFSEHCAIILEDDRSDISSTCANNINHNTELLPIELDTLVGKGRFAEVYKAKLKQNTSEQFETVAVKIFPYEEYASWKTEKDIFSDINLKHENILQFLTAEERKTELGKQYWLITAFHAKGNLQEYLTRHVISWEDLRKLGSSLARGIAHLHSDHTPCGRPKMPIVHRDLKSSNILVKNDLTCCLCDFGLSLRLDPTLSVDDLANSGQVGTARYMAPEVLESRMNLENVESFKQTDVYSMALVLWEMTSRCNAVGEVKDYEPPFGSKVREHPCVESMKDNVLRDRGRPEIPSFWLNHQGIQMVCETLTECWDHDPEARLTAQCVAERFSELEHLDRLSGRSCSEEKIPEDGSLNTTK

[4] = molecular target: Mitogen-activated protein kinase 1 (Homo sapiens) (UniProt P28482); settings: Compound concentration 1.0 uM
Mitogen-activated protein kinase 1 (Homo sapiens), sequence (P28482 whole entry): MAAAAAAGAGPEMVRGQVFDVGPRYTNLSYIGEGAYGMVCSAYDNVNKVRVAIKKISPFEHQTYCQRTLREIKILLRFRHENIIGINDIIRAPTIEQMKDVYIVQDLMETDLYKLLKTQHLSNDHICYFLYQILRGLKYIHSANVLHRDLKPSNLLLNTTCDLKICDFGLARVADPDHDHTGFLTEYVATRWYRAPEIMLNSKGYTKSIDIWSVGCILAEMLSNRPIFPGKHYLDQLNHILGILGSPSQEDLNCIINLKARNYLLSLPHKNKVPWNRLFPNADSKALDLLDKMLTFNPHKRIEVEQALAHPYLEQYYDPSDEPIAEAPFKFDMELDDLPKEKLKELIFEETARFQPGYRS

[5] = molecular target: T2, Serine/threonine-protein kinase Nek9 (Homo sapiens) (UniProt Q8TD19); settings: Compound concentration 1.0 uM
T2 sequence (whole entry): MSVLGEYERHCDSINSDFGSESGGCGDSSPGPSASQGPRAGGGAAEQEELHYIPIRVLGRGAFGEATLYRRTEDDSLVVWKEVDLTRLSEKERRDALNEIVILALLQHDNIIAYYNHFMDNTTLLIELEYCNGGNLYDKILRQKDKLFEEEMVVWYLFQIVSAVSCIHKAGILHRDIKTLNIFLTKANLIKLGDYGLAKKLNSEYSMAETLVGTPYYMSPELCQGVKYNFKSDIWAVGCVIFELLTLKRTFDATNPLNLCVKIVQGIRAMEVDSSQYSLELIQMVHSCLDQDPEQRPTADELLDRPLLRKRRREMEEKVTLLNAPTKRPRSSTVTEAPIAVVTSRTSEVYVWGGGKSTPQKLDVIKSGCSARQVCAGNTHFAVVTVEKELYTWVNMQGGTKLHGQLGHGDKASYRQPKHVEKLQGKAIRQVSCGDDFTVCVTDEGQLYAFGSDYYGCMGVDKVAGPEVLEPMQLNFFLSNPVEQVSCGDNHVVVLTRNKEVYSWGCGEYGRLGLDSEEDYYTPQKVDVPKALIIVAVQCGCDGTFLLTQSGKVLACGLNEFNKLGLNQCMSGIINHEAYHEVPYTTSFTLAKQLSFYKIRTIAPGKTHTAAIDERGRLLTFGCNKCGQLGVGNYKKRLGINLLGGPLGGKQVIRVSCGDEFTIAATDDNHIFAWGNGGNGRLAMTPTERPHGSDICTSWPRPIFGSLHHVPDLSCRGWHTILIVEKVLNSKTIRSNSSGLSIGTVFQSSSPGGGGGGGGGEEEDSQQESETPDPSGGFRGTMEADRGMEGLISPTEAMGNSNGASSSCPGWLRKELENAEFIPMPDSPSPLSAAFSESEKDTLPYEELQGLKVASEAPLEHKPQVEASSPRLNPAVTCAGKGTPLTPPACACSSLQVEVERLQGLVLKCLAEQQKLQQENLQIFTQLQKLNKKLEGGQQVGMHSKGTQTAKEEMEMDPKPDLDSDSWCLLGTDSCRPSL

[6] = molecular target: Serine/threonine-protein kinase mTOR (Homo sapiens) (UniProt P42345); settings: Compound concentration 1.0 uM
[7] = molecular target: T3, NUAK family SNF1-like kinase 1 (Homo sapiens) (UniProt O60285); settings: Compound concentration 1.0 uM
T3 sequence (whole entry): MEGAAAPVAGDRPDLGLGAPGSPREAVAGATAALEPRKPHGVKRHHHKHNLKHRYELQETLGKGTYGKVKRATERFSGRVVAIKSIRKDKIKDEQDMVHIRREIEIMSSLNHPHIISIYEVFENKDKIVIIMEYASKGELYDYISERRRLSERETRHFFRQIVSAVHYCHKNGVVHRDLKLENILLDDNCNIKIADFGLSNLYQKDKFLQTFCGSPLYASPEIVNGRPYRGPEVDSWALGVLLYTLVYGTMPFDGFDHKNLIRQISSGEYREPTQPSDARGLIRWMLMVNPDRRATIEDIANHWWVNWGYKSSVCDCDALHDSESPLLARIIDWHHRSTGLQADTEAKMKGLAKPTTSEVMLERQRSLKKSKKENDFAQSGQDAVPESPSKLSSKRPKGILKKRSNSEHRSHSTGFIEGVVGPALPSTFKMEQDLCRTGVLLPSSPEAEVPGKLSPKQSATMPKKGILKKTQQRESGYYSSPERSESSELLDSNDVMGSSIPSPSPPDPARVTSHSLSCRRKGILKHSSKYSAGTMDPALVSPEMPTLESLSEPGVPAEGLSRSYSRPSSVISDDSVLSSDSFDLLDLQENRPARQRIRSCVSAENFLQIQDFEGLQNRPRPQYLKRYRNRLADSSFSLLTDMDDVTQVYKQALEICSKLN

[8] = species: Rattus norvegicus; settings: Compound concentration 10.0 uM

CN1CCN(c2cnc3c(C4CCN(C(=O)c5ccc(OC(F)(F)F)cc5N)CC4)ncnc3c2)CC1 [BAY-885]
inactive: % residual kinase activity [1] 90% | % residual kinase activity [2] 92% | % residual kinase activity [3] 108% | % residual kinase activity [4] 116% | % residual kinase activity [5] 92% | % residual kinase activity [6] 104% | % residual kinase activity [7] 101%

Cc1nc(C2CCN(C(=O)c3ccc(OC(F)(F)F)cc3N)CC2)c2ncc(N3CCN(C)CC3)cc2n1 [BAY-693]
inactive: inhibition [8] -4.32%
